Measured values from paper PMC10247784, “Physiological activation of human and mouse bitter taste receptors by bile acids” (Communications Biology, 2023).
“And” between values parts separate entries of the source, which are not always exact repeats. Equal entries are not always repeated.

Target: T1, human TAS2R4 (Homo sapiens, UniProt Q9NYW5)
T1 construct: expressed in transfected cells; host or cells: HEK293T-Gα16gust44
T1 sequence (Q9NYW5 1-299): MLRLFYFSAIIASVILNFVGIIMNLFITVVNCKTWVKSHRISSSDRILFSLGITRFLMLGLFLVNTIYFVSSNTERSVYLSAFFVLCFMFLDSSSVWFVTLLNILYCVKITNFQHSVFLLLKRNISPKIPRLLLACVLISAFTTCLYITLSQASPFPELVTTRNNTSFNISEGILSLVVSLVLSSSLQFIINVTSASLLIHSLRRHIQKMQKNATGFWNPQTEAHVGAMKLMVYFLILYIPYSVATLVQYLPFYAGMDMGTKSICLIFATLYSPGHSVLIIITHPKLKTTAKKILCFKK
Assay: Calcium imaging assay (FLIPR), HEK293T-Gα16gust44 cells transfected with human TAS2R4
Format: cell-based
Method in brief: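 Bile acids from DMSO stocks are applied to dye-loaded cells one day after transient receptor transfection, and calcium-dependent fluorescence is recorded. Maximum signal is standardized to basal and normalized to buffer-only wells, with empty-vector signal subtracted.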

C[C@H](CCC(=O)O)[C@H]1CC[C@H]2[C@@H]3[C@@H](O)C[C@@H]4C[C@H](O)CC[C@]4(C)[C@H]3CC[C@]12C [Ursodeoxycholic Acid, ursodeoxycholic acid]
Efficacy = maximal amplitude (ΔF/F) (TAS2R4, bile acids, mean): 0.07236
Efficacy (maximal amplitude ΔF/F), individual data points (TAS2R4, bile acids, single replicates, listed as UDCA): 0.07954 and 0.05089 and 0.08665
Δ F/F (TAS2R4, conc. 0,01 mM): 0.05163
Δ F/F (TAS2R4, conc. 0,03 mM): 0.07236
Δ F/F (TAS2R4, conc. 0,00003 mM): 0.00102
Δ F/F (TAS2R4, conc. 0,0001 mM): 0.006537
Δ F/F (TAS2R4, conc. 0,0003 mM): -0.0004307
Δ F/F (TAS2R4, conc. 0,001 mM): 0.008217
Δ F/F (TAS2R4, conc. 0,003 mM): 0.01726
RLU, fluorescence trace (Time (s) 0): 0 RLU
RLU, fluorescence trace (Time (s) 2): -16.0588 RLU
RLU, fluorescence trace (Time (s) 4): 1.8572 RLU
RLU, fluorescence trace (Time (s) 6): -24.0432 RLU
RLU, fluorescence trace (Time (s) 8): -15.0627 RLU
RLU, fluorescence trace (Time (s) 12): -11.1029 RLU
RLU, fluorescence trace (Time (s) 14): -16.031 RLU
RLU, fluorescence trace (Time (s) 16): -22.0279 RLU
RLU, fluorescence trace (Time (s) 18): -16.0557 RLU
RLU, fluorescence trace (Time (s) 18.766 (TCA, TLCA: 18.782)): -31 RLU
RLU, fluorescence trace (Time (s) 20.781 (TCA, TLCA: 20.782)): -77.5296 RLU
RLU, fluorescence trace (Time (s) 22.781 (TCA, TLCA: 22.782)): -20.8274 RLU
RLU, fluorescence trace (Time (s) 24.781 (TCA, TLCA: 24.782)): 13.5346 RLU
RLU, fluorescence trace (Time (s) 26.781 (TCA, TLCA: 26.782)): 47.9642 RLU
RLU, fluorescence trace (Time (s) 28.781 (TCA, TLCA: 28.782)): 73.9776 RLU
RLU, fluorescence trace (Time (s) 30.781 (TCA, TLCA: 30.782)): 141.824 RLU
RLU, fluorescence trace (Time (s) 32.781 (TCA, TLCA: 32.782)): 170.961 RLU
RLU, fluorescence trace (Time (s) 34.781 (TCA, TLCA: 34.782)): 211.304 RLU
RLU, fluorescence trace (Time (s) 36.781 (TCA, TLCA: 36.782)): 286.431 RLU
RLU, fluorescence trace (Time (s) 38.781 (TCA, TLCA: 38.782)): 316.3 RLU
RLU, fluorescence trace (Time (s) 40.781 (TCA, TLCA: 40.782)): 327.594 RLU
RLU, fluorescence trace (Time (s) 42.781 (TCA, TLCA: 42.782)): 352.031 RLU
RLU, fluorescence trace (Time (s) 44.781 (TCA, TLCA: 44.782)): 380.127 RLU
RLU, fluorescence trace (Time (s) 46.781 (TCA, TLCA: 46.782)): 405.893 RLU
RLU, fluorescence trace (Time (s) 48.781 (TCA, TLCA: 48.782)): 396.948 RLU
RLU, fluorescence trace (Time (s) 50.781 (TCA, TLCA: 50.782)): 411.019 RLU
RLU, fluorescence trace (Time (s) 52.781 (TCA, TLCA: 52.782)): 398.089 RLU
RLU, fluorescence trace (Time (s) 54.781 (TCA, TLCA: 54.782)): 413.206 RLU
RLU, fluorescence trace (Time (s) 56.781 (TCA, TLCA: 56.782)): 434.735 RLU
RLU, fluorescence trace (Time (s) 58.781 (TCA, TLCA: 58.782)): 418.956 RLU
RLU, fluorescence trace (Time (s) 60.781 (TCA, TLCA: 60.782)): 389 RLU
RLU, fluorescence trace (Time (s) 62.781 (TCA, TLCA: 62.782)): 407.272 RLU
RLU, fluorescence trace (Time (s) 64.781 (TCA, TLCA: 64.782)): 410.187 RLU
RLU, fluorescence trace (Time (s) 66.781 (TCA, TLCA: 66.782)): 395 RLU
RLU, fluorescence trace (Time (s) 68.781 (TCA, TLCA: 68.782)): 396.708 RLU
RLU, fluorescence trace (Time (s) 70.781 (TCA, TLCA: 70.782)): 394.232 RLU
RLU, fluorescence trace (Time (s) 72.781 (TCA, TLCA: 72.782)): 389.174 RLU
RLU, fluorescence trace (Time (s) 74.781 (TCA, TLCA: 74.782)): 367.247 RLU
RLU, fluorescence trace (Time (s) 76.781 (TCA, TLCA: 76.782)): 368.083 RLU
RLU, fluorescence trace (Time (s) 78.781 (TCA, TLCA: 78.782)): 368.91 RLU
RLU, fluorescence trace (Time (s) 80.781 (TCA, TLCA: 80.782)): 354 RLU
RLU, fluorescence trace (Time (s) 82.781 (TCA, TLCA: 82.782)): 345.234 RLU
RLU, fluorescence trace (Time (s) 84.781 (TCA, TLCA: 84.782)): 349.472 RLU
RLU, fluorescence trace (Time (s) 86.781 (TCA, TLCA: 86.782)): 337.61 RLU
RLU, fluorescence trace (Time (s) 88.781 (TCA, TLCA: 88.782)): 322.366 RLU
RLU, fluorescence trace (Time (s) 90.781 (TCA, TLCA: 90.782)): 310.929 RLU
RLU, fluorescence trace (Time (s) 92.781 (TCA, TLCA: 92.782)): 320.728 RLU
RLU, fluorescence trace (Time (s) 94.781 (TCA, TLCA: 94.782)): 299.044 RLU
RLU, fluorescence trace (Time (s) 96.781 (TCA, TLCA: 96.782)): 305.557 RLU
RLU, fluorescence trace (Time (s) 98.781 (TCA, TLCA: 98.782)): 298.819 RLU
RLU, fluorescence trace (Time (s) 100.781 (TCA, TLCA: 100.782)): 293.739 RLU
RLU, fluorescence trace (Time (s) 102.781 (TCA, TLCA: 102.782)): 282.259 RLU
RLU, fluorescence trace (Time (s) 104.781 (TCA, TLCA: 104.782)): 266.754 RLU
RLU, fluorescence trace (Time (s) 106.781 (TCA, TLCA: 106.782)): 276.382 RLU
RLU, fluorescence trace (Time (s) 108.781 (TCA, TLCA: 108.782)): 259.159 RLU
RLU, fluorescence trace (Time (s) 110.781 (TCA, TLCA: 110.782)): 276.445 RLU
RLU, fluorescence trace (Time (s) 112.781 (TCA, TLCA: 112.782)): 267.37 RLU
RLU, fluorescence trace (Time (s) 114.781 (TCA, TLCA: 114.782)): 253.353 RLU
RLU, fluorescence trace (Time (s) 116.781 (TCA, TLCA: 116.782)): 251.234 RLU
RLU, fluorescence trace (Time (s) 118.781 (TCA, TLCA: 118.782)): 253.766 RLU
RLU, fluorescence trace (Time (s) 120.781 (TCA, TLCA: 120.782)): 230.621 RLU
RLU, fluorescence trace (Time (s) 122.781 (TCA, TLCA: 122.782)): 238.721 RLU
RLU, fluorescence trace (Time (s) 124.781 (TCA, TLCA: 124.782)): 218.638 RLU
RLU, fluorescence trace (Time (s) 126.781 (TCA, TLCA: 126.782)): 215.286 RLU
RLU, fluorescence trace (Time (s) 128.781 (TCA, TLCA: 128.782)): 226.16 RLU
RLU, fluorescence trace (Time (s) 130.781 (TCA, TLCA: 130.782)): 229.593 RLU
RLU, fluorescence trace (Time (s) 132.781 (TCA, TLCA: 132.782)): 216.307 RLU
RLU, fluorescence trace (Time (s) 134.781 (TCA, TLCA: 134.782)): 209.298 RLU
RLU, fluorescence trace (Time (s) 136.781 (TCA, TLCA: 136.782)): 214.712 RLU
RLU, fluorescence trace (Time (s) 137.547): 211.548 RLU
RLU, fluorescence trace (Time (s) 143.547): 195.123 RLU
RLU, fluorescence trace (Time (s) 149.547): 191.876 RLU
RLU, fluorescence trace (Time (s) 155.547): 182.53 RLU
RLU, fluorescence trace (Time (s) 161.547): 172.093 RLU
RLU, fluorescence trace (Time (s) 167.547): 173.823 RLU
RLU, fluorescence trace (Time (s) 173.547): 178.999 RLU
RLU, fluorescence trace (Time (s) 179.547): 149.456 RLU
RLU, fluorescence trace (Time (s) 185.547): 128.186 RLU
RLU, fluorescence trace (Time (s) 191.547): 150.92 RLU
RLU, fluorescence trace (Time (s) 197.547): 155.041 RLU
RLU, fluorescence trace (Time (s) 203.547): 152.046 RLU
RLU, fluorescence trace (Time (s) 209.547): 155.822 RLU
RLU, fluorescence trace (Time (s) 215.547): 146.722 RLU
RLU, fluorescence trace (Time (s) 221.547): 144.396 RLU
RLU, fluorescence trace (Time (s) 227.547): 187.605 RLU
RLU, fluorescence trace (Time (s) 233.547): 160.672 RLU
RLU, fluorescence trace (Time (s) 239.547): 166.203 RLU
RLU, fluorescence trace (Time (s) 245.547): 147.048 RLU
RLU, fluorescence trace (Time (s) 293.547): 162.322 RLU
RLU, fluorescence trace (Time (s) 299.547): 130.446 RLU
RLU, fluorescence trace (Time (s) 305.547): 132.691 RLU
RLU, fluorescence trace (Time (s) 311.547): 138.907 RLU
RLU, fluorescence trace (Time (s) 317.547): 111.452 RLU
RLU, fluorescence trace (Time (s) 323.547): 135.942 RLU
RLU, fluorescence trace (Time (s) 329.547): 131.935 RLU
RLU, fluorescence trace (Time (s) 335.547): 149.888 RLU
RLU, fluorescence trace (Time (s) 341.547): 132.356 RLU
RLU, fluorescence trace (Time (s) 347.547): 117.981 RLU
RLU, fluorescence trace (Time (s) 353.547): 135.981 RLU
RLU, fluorescence trace (Time (s) 359.547): 144.823 RLU
Activation threshold concentration TAS2R4 (lowest concentration with significantly increased fluorescence vs empty vector (p < 0.01)): 3 µM
